# Assay results: ChEMBL document CHEMBL2010789, “Identification of 3-acyl-2-phenylamino-1,4-dihydroquinolin-4-one derivatives as inhibitors of the phosphatase SerB653 in Porphyromonas gingivalis, implicated in periodontitis” (Bioorg Med Chem Lett, 2012)
# pIC50, pKi: −log10 of the molar value. Activity calls are given as the source filed them. No cut-off for these calls is given here.
# Legend:
# Porphyromonas gingivalis [1] = assay: Inhibition of Porphyromonas gingivalis recombinant SerB653 phosphatase expressed in Escherichia coli BL21 using phosphoserine as substrate at 50 uM after 1 hr by malachite green colorimetric assay
# [2] = Inhibition of Porphyromonas gingivalis recombinant SerB653 phosphatase expressed in Escherichia coli BL21 using phosphoserine as substrate after 1 hr by malachite green colorimetric assay
# [3] = Inhibition of Porphyromonas gingivalis recombinant SerB653 phosphatase expressed in Escherichia coli BL21 using phosphoserine as substrate measured every 10 secs by malachite green colorimetric assay
# Porphyromonas gingivalis [4] = assay: Competitive inhibition of Porphyromonas gingivalis recombinant SerB653 phosphatase expressed in Escherichia coli BL21 using phosphoserine as substrate by Lineweaver-Burk plot analysis
# Porphyromonas gingivalis [5] = assay: Antibacterial activity against Porphyromonas gingivalis ATCC 33277 after 2 hrs by broth microdilution method; type: functional; conditions: ATCC 33277, 2 h
inhibition (Porphyromonas gingivalis [1]) [%],pIC50 [2],inhibition (Porphyromonas gingivalis [4]),MIC (Porphyromonas gingivalis [5]) [µg/mL],Compound,pKi [3]
0,–,–,–,CC(=O)c1c(Nc2ccc(C(C)(C)C)cc2)[nH]c2c([N+](=O)[O-])cc(Cl)cc2c1=O,–
98.3,4.72,–,–,CC(=O)c1c(Nc2cc(Cl)ccc2Cl)[nH]c2c(Cl)ccc([N+](=O)[O-])c2c1=O,–
89.7,4.94,–,–,O=C(c1c(Nc2ccc(Cl)c(Cl)c2)[nH]c2c(Cl)ccc(Cl)c2c1=O)C1CC1,5.39
99.4,4.77,–,–,O=C(c1c(Nc2cc(Cl)cc(Cl)c2)[nH]c2c(Cl)ccc([N+](=O)[O-])c2c1=O)C1CC1,–
95,4.71,–,–,CC(=O)c1c(Nc2cc(C(F)(F)F)cc(C(F)(F)F)c2)[nH]c2c(F)ccc(F)c2c1=O,–
9.3,–,–,–,CC(=O)c1c(Nc2ccc(F)cc2)[nH]c2c([N+](=O)[O-])cc(Cl)cc2c1=O,–
96.3,4.73,–,–,CC(=O)c1c(Nc2ccc(Cl)cc2Cl)[nH]c2c(C(F)(F)F)cccc2c1=O,–
4.8,–,–,–,CC(=O)c1c(Nc2ccccc2)[nH]c2c(Cl)c(Cl)ccc2c1=O,–
1.4,–,–,–,CC(=O)c1c(Nc2ccc(Br)cc2)[nH]c2c(F)ccc(F)c2c1=O,–
92.7,4.71,–,–,CCC(=O)c1c(Nc2cc(F)cc(F)c2)[nH]c2c(Cl)ccc([N+](=O)[O-])c2c1=O,–
92.2,4.75,–,–,CC(=O)c1c(Nc2cc(F)cc(F)c2)[nH]c2c([N+](=O)[O-])cc(Cl)cc2c1=O,–
99,5.15,–,–,CC(=O)c1c(Nc2ccc(Cl)cc2Cl)[nH]c2c(C(F)(F)F)cc(Cl)cc2c1=O,5.60
97.4,4.71,–,–,CCC(=O)c1c(Nc2ccc(Cl)cc2Cl)[nH]c2c(Cl)ccc([N+](=O)[O-])c2c1=O,–
0,–,–,–,COc1cccc(Nc2[nH]c3c([N+](=O)[O-])cc(Cl)cc3c(=O)c2C(C)=O)c1,–
91,4.71,–,–,CC(C)CC(=O)c1c(Nc2cc(F)ccc2F)[nH]c2c(Cl)ccc(Cl)c2c1=O,–
98.1,4.75,–,–,O=C(c1c(Nc2ccc(Cl)cc2Cl)[nH]c2c(Cl)ccc([N+](=O)[O-])c2c1=O)C1CC1,–
7.9,–,–,–,CC(=O)c1c(Nc2cc(F)ccc2F)[nH]c2c(F)ccc(F)c2c1=O,–
85.6,4.95,–,–,O=C(c1c(Nc2ccc(F)cc2F)[nH]c2c(Cl)ccc([N+](=O)[O-])c2c1=O)C1CC1,5.40
96.7,4.71,–,–,CC(=O)c1c(Nc2cccc(Cl)c2Cl)[nH]c2c(Cl)ccc([N+](=O)[O-])c2c1=O,–
97.3,4.72,–,–,CC(C)C(=O)c1c(Nc2cc(Cl)ccc2Cl)[nH]c2c(Cl)ccc([N+](=O)[O-])c2c1=O,–
86.6,4.78,–,–,CC(=O)c1c(Nc2cc(Cl)ccc2Cl)[nH]c2c(Cl)ccc(Cl)c2c1=O,–
8.6,–,–,–,CC(=O)c1c(Nc2cc(Cl)cc(Cl)c2)[nH]c2c(C)ccc(Cl)c2c1=O,–
3.6,–,–,–,COc1cccc(Nc2[nH]c3c(Cl)c(Cl)ccc3c(=O)c2C(C)=O)c1,–
3.1,–,–,–,CC(=O)c1c(Nc2ccccc2)[nH]c2c([N+](=O)[O-])cc(Cl)cc2c1=O,–
89.1,4.77,–,–,CC(=O)c1c(Nc2ccccc2Cl)[nH]c2c(C(F)(F)F)cc(Cl)cc2c1=O,–

# Second part, the compound before the results:
Compound,inhibition (Porphyromonas gingivalis [1]) [%],pIC50 [2],inhibition (Porphyromonas gingivalis [4]),MIC (Porphyromonas gingivalis [5]) [µg/mL],pKi [3]
CC(C)CC(=O)c1c(Nc2ccc(Cl)cc2F)[nH]c2c(Cl)ccc([N+](=O)[O-])c2c1=O,97.3,4.71,–,–,–
O=C(c1c(Nc2cccc(Cl)c2Cl)[nH]c2c(Cl)ccc([N+](=O)[O-])c2c1=O)C1CC1,98.5,4.90,–,–,5.35
CC(=O)c1c(Nc2ccc(F)cc2F)[nH]c2c(F)ccc(F)c2c1=O,0,–,–,–,–
CC(C)CC(=O)c1c(Nc2cc(Cl)ccc2Cl)[nH]c2c(Cl)ccc([N+](=O)[O-])c2c1=O,98.8,4.73,–,–,–
O=C(c1c(Nc2cc(F)cc(F)c2)[nH]c2c(Cl)ccc([N+](=O)[O-])c2c1=O)C1CC1,96.2,5.55,Active,0.006,6.00
CC(C)C(=O)c1c(Nc2ccc(Cl)cc2Cl)[nH]c2c(Cl)ccc(Cl)c2c1=O,97.7,5.10,–,–,5.54
CC(=O)c1c(Nc2cc(C(F)(F)F)cc(C(F)(F)F)c2)[nH]c2c(Cl)ccc(F)c2c1=O,98.5,4.71,–,–,–
CC(C)C(=O)c1c(Nc2cc(Cl)cc(Cl)c2)[nH]c2c(Cl)ccc(Cl)c2c1=O,94.9,5.04,–,–,5.48
CCC(=O)c1c(Nc2cc(Cl)ccc2Cl)[nH]c2c(Cl)ccc([N+](=O)[O-])c2c1=O,97.8,5.40,–,0.05,5.85
CC(=O)c1c(Nc2cc(Cl)cc(Cl)c2)[nH]c2c(Cl)ccc([N+](=O)[O-])c2c1=O,99.3,4.73,–,–,–
O=C(c1c(Nc2ccc(Cl)cc2F)[nH]c2c(Cl)ccc([N+](=O)[O-])c2c1=O)C1CC1,95.5,4.73,–,–,–
CC(=O)c1c(Nc2ccc(C(F)(F)F)cc2)[nH]c2c(C(F)(F)F)cc(Cl)cc2c1=O,97.7,5.15,–,–,5.60
CC(=O)c1c(Nc2cc(F)cc(F)c2)[nH]c2c(F)ccc(F)c2c1=O,5.9,–,–,–,–
CC(C)C(=O)c1c(Nc2cc(F)cc(F)c2)[nH]c2c(Cl)ccc([N+](=O)[O-])c2c1=O,94.7,4.72,–,–,–
CC(C)C(=O)c1c(Nc2cc(Cl)cc(Cl)c2)[nH]c2c(Cl)ccc([N+](=O)[O-])c2c1=O,99.1,4.75,–,–,–
CC(=O)c1c(Nc2ccc(Cl)cc2F)[nH]c2c(Cl)ccc(C)c2c1=O,24.5,–,–,–,–
CC(=O)c1c(Nc2cc(F)cc(F)c2)[nH]c2c(Cl)c(Cl)ccc2c1=O,93.5,4.73,–,–,–
CC(C)C(=O)c1c(Nc2cccc(Cl)c2Cl)[nH]c2c(Cl)ccc([N+](=O)[O-])c2c1=O,96.3,4.72,–,–,–
CC(C)CC(=O)c1c(Nc2cc(Cl)cc(Cl)c2)[nH]c2c(Cl)ccc([N+](=O)[O-])c2c1=O,99.1,4.73,–,–,–

Compound,inhibition (Porphyromonas gingivalis [1]) [%],pIC50 [2],inhibition (Porphyromonas gingivalis [4]),MIC (Porphyromonas gingivalis [5]) [µg/mL],pKi [3]
CCC(=O)c1c(Nc2ccc(Cl)c(Cl)c2)[nH]c2c(Cl)ccc([N+](=O)[O-])c2c1=O,98.5,4.94,–,–,5.39
CC(=O)c1c(Nc2ccc(F)cc2F)[nH]c2c(Cl)ccc(F)c2c1=O,9.1,–,–,–,–
O=C(c1c(Nc2cc(Cl)ccc2Cl)[nH]c2c(Cl)ccc([N+](=O)[O-])c2c1=O)C1CC1,98.2,4.73,–,–,–
CC(C)CC(=O)c1c(Nc2cccc(Cl)c2Cl)[nH]c2c(Cl)ccc([N+](=O)[O-])c2c1=O,98.6,4.72,–,–,–
CC(=O)c1c(Nc2ccc(F)c(F)c2F)[nH]c2c(Cl)ccc(C)c2c1=O,32.4,–,–,–,–
CC(=O)c1c(Nc2cccc(C)c2)[nH]c2c(Cl)c(Cl)ccc2c1=O,1.6,–,–,–,–
CC(C)C(=O)c1c(Nc2ccc(Cl)cc2F)[nH]c2c(Cl)ccc([N+](=O)[O-])c2c1=O,94.3,4.78,–,–,–
CC(=O)c1c(Nc2ccc(C)cc2)[nH]c2c([N+](=O)[O-])cc(Cl)cc2c1=O,2.2,–,–,–,–
CC(=O)c1c(Nc2ccc(Cl)cc2)[nH]c2c(C(F)(F)F)cc(Cl)cc2c1=O,95.7,5.12,–,–,5.57
CC(=O)c1c(Nc2ccc(F)cc2F)[nH]c2c(C)ccc(Cl)c2c1=O,2.3,–,–,–,–
CCC(=O)c1c(Nc2cc(Cl)cc(Cl)c2)[nH]c2c(Cl)ccc([N+](=O)[O-])c2c1=O,97.4,5.16,–,–,5.60
CCC(=O)c1c(Nc2cccc(Cl)c2Cl)[nH]c2c(Cl)ccc([N+](=O)[O-])c2c1=O,97.1,5.26,–,0.05,5.70
CC(C)C(=O)c1c(Nc2ccc(F)cc2F)[nH]c2c(Cl)ccc([N+](=O)[O-])c2c1=O,80.1,4.91,–,–,–
COc1ccc(Nc2[nH]c3c([N+](=O)[O-])cc(Cl)cc3c(=O)c2C(C)=O)cc1,6.2,–,–,–,–
CC(C)CC(=O)c1c(Nc2cc(F)cc(F)c2)[nH]c2c(Cl)ccc([N+](=O)[O-])c2c1=O,97.5,4.79,–,–,–
CC(=O)c1c(Nc2cccc(F)c2C)[nH]c2c(F)ccc(F)c2c1=O,0,–,–,–,–
CCC(=O)c1c(Nc2ccc(Cl)cc2F)[nH]c2c(Cl)ccc([N+](=O)[O-])c2c1=O,94.9,4.70,–,–,–
CC(=O)c1c(Nc2ccc([N+](=O)[O-])cc2)[nH]c2c([N+](=O)[O-])cc(Cl)cc2c1=O,87,4.84,–,–,–
CC(C)CC(=O)c1c(Nc2ccc(Cl)cc2Cl)[nH]c2c(Cl)ccc([N+](=O)[O-])c2c1=O,97.8,4.71,–,–,–
